This experiment deals with HeLa cells. Put plainly: mitosis assay with HeLa cell-line stably expressing PCNA3p16-GFP (clone 9.6). Type of experiment: cell-based, human. As to conditions: 0.1 μg/ml, 13 h time series, 30 min intervals. The method, then: HeLa cell-lines stably expressing PCNA3p16-GFP (clone 9.6; amino acid sequence of SEQ ID NO: 2 fused to GFP) were seeded at 50% confluency in live cell imaging chamber (ibidi μ-Slide 8 well). After incubation over night, normal growth medium (DMEM+10% FCS) was replaced with CO2 adapted live-cell medium (DMEM without phenol red+10% FCS+25 mM Hepes Buffer). Subsequently the imaging slide was placed on an INCell Analyzer 1000 (GE Healthcare) high content microscope equipped with an environmental control chamber, adjusted to 37° C. and 5% CO2. Images were acquired with an 20X/0.45 NA air objective using the appropriate filterset for the fluorescent protein GFP (HQ480—40X/HQ535—50M) and an exposure time of 750 ms. For the live cell imaging 15 fields of view per well were selected and a 13 hour time series started with time intervals of 30 min. After the first time point 0.1 μg/ml Colcemid was added directly to the medium of one well; control cells were left untreated (FIG. 11A). Colcemid is a mitotic inhibitor drug such as Colchicine, which depolymerises microtubules and limits microtubule formation (inactivates spindle fibre formation), thus arresting cells in metaphase.
The acquired data set was analyzed with the automated image evaluation and quantification program INCell workstation. […] The amount of mitotic cells per time point was counted and evaluated.

SMILES strings stand for the structures.

For the molecule `CN[C@H]1CCc2cc(OC)c(OC)c(OC)c2-c2ccc(OC)c(=O)cc21` [colcemid, Colcemid], the “mitotic cells in treated cell population” value was “increase of mitotic cells”.

The record behind these values is patent publication US8999669B2, “Detection and visualization of the cell cycle in living cells” (Ludwig-Maximilians Universitat München, priority 2009, dated 2015).
